What all share (assay type): biochemical
One experiment deals with T1, KDM4C (JMJD2C) (Homo sapiens, UniProt Q9H3R0).
T1 construct: KDM4C; BRIC, Denmark; 1-349; E. coli; host or cells: E. coli
T1 sequence (Q9H3R0 1-349): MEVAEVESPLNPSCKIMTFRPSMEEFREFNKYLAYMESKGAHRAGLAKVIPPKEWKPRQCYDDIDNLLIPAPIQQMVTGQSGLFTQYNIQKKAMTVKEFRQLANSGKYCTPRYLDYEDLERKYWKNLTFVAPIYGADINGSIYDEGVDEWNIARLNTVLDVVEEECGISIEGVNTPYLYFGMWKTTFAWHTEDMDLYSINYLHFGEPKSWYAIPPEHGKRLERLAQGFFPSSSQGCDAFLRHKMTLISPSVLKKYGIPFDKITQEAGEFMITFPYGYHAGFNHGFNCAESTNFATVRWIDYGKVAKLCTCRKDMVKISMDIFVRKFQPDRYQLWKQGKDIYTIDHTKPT
The experiment is described as follows: Histone lysine demethylase AlphaLISA assay, KDM4C. The gist of the method: (§1)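 Compounds preincubated 10 min with each demethylase in Hepes buffer (pH 7.4-8.0) containing Tween-20, 0.1% BSA and 5 μM Fe(II); substrate then added, room-temperature reaction. Read-out by AlphaLISA acceptor and streptavidin donor beads after incubation in the dark.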
Background: In Alpha technology, singlet oxygen from a donor bead excites a nearby acceptor bead.

The next experiment deals with T2, KDM2B (FBXL10) (Homo sapiens, UniProt Q8NHM5).
T2 construct: KDM2B; BPS,; 1-650; Bac; purchased BPS Bioscience, US; host or cells: baculovirus system
T2 sequence (Q8NHM5 1-650): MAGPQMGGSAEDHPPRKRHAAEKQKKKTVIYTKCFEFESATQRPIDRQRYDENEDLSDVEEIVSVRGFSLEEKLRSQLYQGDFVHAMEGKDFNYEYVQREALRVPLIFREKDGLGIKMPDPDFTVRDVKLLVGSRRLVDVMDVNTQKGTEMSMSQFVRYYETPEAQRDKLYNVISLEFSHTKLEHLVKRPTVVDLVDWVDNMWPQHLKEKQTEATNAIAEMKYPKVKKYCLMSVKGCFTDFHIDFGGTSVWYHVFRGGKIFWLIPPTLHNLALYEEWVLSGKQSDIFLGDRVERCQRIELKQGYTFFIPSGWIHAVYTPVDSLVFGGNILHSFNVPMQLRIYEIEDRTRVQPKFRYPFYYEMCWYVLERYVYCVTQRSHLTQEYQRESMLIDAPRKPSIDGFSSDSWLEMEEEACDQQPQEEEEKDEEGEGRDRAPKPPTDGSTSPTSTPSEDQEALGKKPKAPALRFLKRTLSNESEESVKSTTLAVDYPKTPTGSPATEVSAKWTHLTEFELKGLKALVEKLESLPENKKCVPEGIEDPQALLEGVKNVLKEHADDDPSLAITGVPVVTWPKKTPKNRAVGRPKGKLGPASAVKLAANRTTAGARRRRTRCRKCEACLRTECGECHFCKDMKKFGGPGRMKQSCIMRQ
The experiment is described as follows: Histone lysine demethylase AlphaLISA assay, KDM2B. As to conditions: AlphaLISA, in vitro; read-out: HDME Inhibition KDM2B. A digest of the protocol:
as §1

Another experiment deals with T3, PHF8 (KDM7) (Homo sapiens, UniProt Q9UPP1).
T3 construct: KDM7 (PHF8); BRIC; 1-1322; Bac
Description: Histone lysine demethylase AlphaLISA assay, PHF8. The gist of the method: as §1

The target of another experiment is T4, KDM5B (PLU-1) (Homo sapiens, UniProt Q9UGL1).
T4 construct: BRIC; 1-809; E. coli; host or cells: E. coli
T4 sequence (Q9UGL1 1-809): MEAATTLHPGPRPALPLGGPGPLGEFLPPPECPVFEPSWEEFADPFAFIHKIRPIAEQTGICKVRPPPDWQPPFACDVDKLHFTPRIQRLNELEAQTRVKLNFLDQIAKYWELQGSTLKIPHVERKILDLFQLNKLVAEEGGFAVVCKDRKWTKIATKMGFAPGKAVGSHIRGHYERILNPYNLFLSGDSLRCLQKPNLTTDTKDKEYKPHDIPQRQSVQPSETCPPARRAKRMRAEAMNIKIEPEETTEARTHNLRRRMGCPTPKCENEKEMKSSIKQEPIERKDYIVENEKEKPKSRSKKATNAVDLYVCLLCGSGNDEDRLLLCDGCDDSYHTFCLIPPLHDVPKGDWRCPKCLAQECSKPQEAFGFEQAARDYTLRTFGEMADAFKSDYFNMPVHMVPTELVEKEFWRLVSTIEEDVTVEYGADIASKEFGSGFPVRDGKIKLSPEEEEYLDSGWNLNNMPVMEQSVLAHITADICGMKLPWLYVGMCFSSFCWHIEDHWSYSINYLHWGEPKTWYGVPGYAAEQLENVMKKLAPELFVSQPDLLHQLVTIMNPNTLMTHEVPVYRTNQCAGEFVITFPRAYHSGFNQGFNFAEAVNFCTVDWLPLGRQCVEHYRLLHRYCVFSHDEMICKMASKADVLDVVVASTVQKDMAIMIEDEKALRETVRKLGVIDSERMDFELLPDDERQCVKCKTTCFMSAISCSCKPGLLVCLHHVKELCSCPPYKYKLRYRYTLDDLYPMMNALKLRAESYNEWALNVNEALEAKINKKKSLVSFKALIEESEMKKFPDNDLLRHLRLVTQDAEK
The experiment is described as follows: Histone lysine demethylase AlphaLISA assay, KDM5B. A digest of the protocol: as §1

Where [1] appears, read: AlphaLISA assay, read-out: HDME Inhibition KDM4C (IC50).
The mark [2] stands for this setting: AlphaLISA, in vitro, read-out: HDME Inhibition KDM4C.
Setting [3] is: AlphaLISA, in vitro, read-out: HDME Inhibition PHF8.
[4] abbreviates: AlphaLISA assay, read-out: HDME Inhibition KDM5B (IC50).
Setting [5] is: AlphaLISA, in vitro, read-out: HDME Inhibition KDM5B.
The mark [6] stands for this setting: AlphaLISA assay, read-out: HDME Inhibition PHF8 (IC50).

Where two headings read alike, the source gives them in different places.

In the case of `CCCc1nnc(CNCc2cc(C(=O)O)cc(CO)n2)n1Cc1ccc(F)cc1` [Compound 73, 2-{[({4-[(4-fluorophenyl)methyl]-5-propyl-4H-1,2,4-triazol-3-yl}methyl)amino]methyl}-6-(hydroxymethyl)pyridine-4-carboxylic acid], the IC50 on KDM4C (JMJD2C) (setting [1]) was greater than 10 µM; at KDM4C (JMJD2C) (setting [2]) it was greater than 10 µM; at KDM2B (FBXL10) it was 0.252 µM; at PHF8 (KDM7) (setting [3]), 1.65 µM; at KDM5B (PLU-1) (setting [4]), greater than 10 µM; at KDM5B (PLU-1) (setting [5]), greater than 10 µM.
For `Cc1cc(C(=O)O)cc(CNCc2nncn2CCCc2ccccc2)n1` [Compound 56], the IC50 at KDM4C (JMJD2C) (setting [1]) was greater than 10 µM; on KDM4C (JMJD2C) (setting [2]), greater than 10 µM; on KDM2B (FBXL10), 0.482 µM; on PHF8 (KDM7) (setting [3]), 0.883 µM; on KDM5B (PLU-1) (setting [4]), greater than 10 µM; on KDM5B (PLU-1) (setting [5]), greater than 10 µM.
Turning to `O=C(O)c1cc(CO)nc(CNCc2nncn2CCCc2ccccc2)c1` [Compound 78, 2-(hydroxymethyl)-6-[({[4-(3-phenylpropyl)-4H-1,2,4-triazol-3-yl]methyl}amino)methyl]pyridine-4-carboxylic acid], the IC50 was greater than 10 µM on KDM4C (JMJD2C) (setting [1]); greater than 10 µM at KDM4C (JMJD2C) (setting [2]); 0.34 µM at KDM2B (FBXL10); 1.14 µM on PHF8 (KDM7) (setting [3]); 0.641 µM at KDM5B (PLU-1).
In the case of `CCN(CCN(C)C)C(=O)CNCc1cc(C(=O)O)cc(CO)n1` [Compound 102, 2-{[({[2-(dimethylamino)ethyl](ethyl)carbamoyl}methyl)amino]methyl}-6-(hydroxymethyl)pyridine-4-carboxylic acid], the IC50 at KDM4C (JMJD2C) (setting [2]) is 7.05 µM; at KDM2B (FBXL10), 0.24 µM; on PHF8 (KDM7) (setting [6]), greater than 10 µM; at PHF8 (KDM7) (setting [3]), greater than 10 µM; on KDM5B (PLU-1) (setting [5]), 0.02 µM.
As to `CCn1cnc2cc(Cn3cnnc3CNCc3cc(C(=O)O)cc(C)n3)ccc21` [Compound 41, 2-{[({4-[(1-ethyl-1H-1,3-benzodiazol-5-yl)methyl]-4H-1,2,4-triazol-3-yl}methyl)amino]methyl}-6-methylpyridine-4-carboxylic acid], the IC50 at KDM4C (JMJD2C) (setting [1]) was greater than 10 µM; on KDM4C (JMJD2C) (setting [2]), greater than 10 µM; on KDM2B (FBXL10) it was 1.66 µM; on PHF8 (KDM7) (setting [3]) it was 6.56 µM; at KDM5B (PLU-1) (setting [4]), greater than 10 µM; on KDM5B (PLU-1) (setting [5]), greater than 10 µM.
For `CCc1cnc(CNCc2cc(C(=O)O)cc(CO)n2)n1Cc1ccc(F)cc1` [Compound 100, 2-{[({5-ethyl-1-[(4-fluorophenyl)methyl]-1H-imidazol-2-yl}methyl)amino]methyl}-6-(hydroxymethyl)pyridine-4-carboxylic acid], the IC50 on KDM4C (JMJD2C) (setting [1]) was greater than 10 µM; at KDM4C (JMJD2C) (setting [2]) it was greater than 10 µM; at KDM2B (FBXL10), 0.07 µM; on PHF8 (KDM7) (setting [3]), 1.15 µM; against KDM5B (PLU-1) it was 0.635 µM.
Regarding `C/C=C/c1cnc(CNCc2cc(C(=O)O)cc(C)n2)n1Cc1ccc(F)cc1` [Compound 42, 2-{[({1-[(4-fluorophenyl)methyl]-5-[(1E)-prop-1-en-1-yl]-1H-imidazol-2-yl}methyl)amino]methyl}-6-methylpyridine-4-carboxylic acid], the IC50 at KDM4C (JMJD2C) (setting [1]) was greater than 10 µM; on KDM4C (JMJD2C) (setting [2]) it was greater than 10 µM; at KDM2B (FBXL10), 0.659 µM; at PHF8 (KDM7) (setting [3]) it was 0.859 µM; on KDM5B (PLU-1) (setting [4]) it was greater than 10 µM; on KDM5B (PLU-1) (setting [5]), greater than 10 µM.
Regarding `COc1ccc(OCCc2ccccc2)c(CCNCc2cc(C(=O)O)cc(CO)n2)n1` [Compound 107, 2-(hydroxymethyl)-6-[({2-[6-methoxy-3-(2-phenylethoxy)pyridin-2-yl]ethyl}amino)methyl]pyridine-4-carboxylic acid], the IC50 on KDM4C (JMJD2C) (setting [1]) is greater than 10 µM; on KDM4C (JMJD2C) (setting [2]), greater than 10 µM; at KDM2B (FBXL10), 5.18 µM; at PHF8 (KDM7) (setting [6]), greater than 10 µM; at PHF8 (KDM7) (setting [3]), greater than 10 µM; at KDM5B (PLU-1) (setting [4]), greater than 10 µM. At KDM5B (PLU-1) (setting [5]), the IC50 was greater than 10 µM.
With `Cc1cc(C(=O)O)cc(CNCc2nnc(C(C)O)n2Cc2ccc(F)cc2)n1` (stereo not drawn) [Compound 85, 2-{[({4-[(4-fluorophenyl)methyl]-5-(1-hydroxyethyl)-4H-1,2,4-triazol-3-yl}methyl)amino]methyl}-6-methylpyridine-4-carboxylic acid], the IC50 at KDM4C (JMJD2C) (setting [1]) was greater than 10 µM; at KDM4C (JMJD2C) (setting [2]) it was greater than 10 µM; at KDM2B (FBXL10) it was 0.461 µM; at PHF8 (KDM7) (setting [3]), 1.86 µM; on KDM5B (PLU-1) (setting [4]), greater than 10 µM; on KDM5B (PLU-1) (setting [5]), greater than 10 µM.
`COc1ccc(OCc2ccccc2)c(CNCc2cc(C(=O)O)cc(C)n2)n1` [Compound 92, 2-[({[3-(benzyloxy)-6-methoxypyridin-2-yl]methyl}amino)methyl]-6-methylpyridine-4-carboxylic acid]: the IC50 on KDM4C (JMJD2C) (setting [1]) is greater than 10 µM; on KDM4C (JMJD2C) (setting [2]), greater than 10 µM; at KDM2B (FBXL10), 0.053 µM; at PHF8 (KDM7) (setting [3]), 1.23 µM; on KDM5B (PLU-1) (setting [4]), greater than 10 µM; at KDM5B (PLU-1) (setting [5]) it was greater than 10 µM.
In the case of `CC#CCc1cnc(CNCc2cc(C(=O)O)cc(C)n2)n1Cc1ccc(F)cc1` [Compound 112, 2-[({[5-(but-2-yn-1-yl)-1-[(4-fluorophenyl)methyl]-1H-imidazol-2-yl]methyl}amino)methyl]-6-methylpyridine-4-carboxylic acid], the IC50 on KDM4C (JMJD2C) (setting [1]) was greater than 10 µM; at KDM4C (JMJD2C) (setting [2]), greater than 10 µM; on KDM2B (FBXL10) it was 0.375 µM; on PHF8 (KDM7) (setting [3]), 3.52 µM; on KDM5B (PLU-1) (setting [4]), greater than 10 µM; at KDM5B (PLU-1) (setting [5]) it was greater than 10 µM.
As to `CCc1nnc(CNCc2cc(C(=O)O)cc(CO)n2)n1CCCC(C)C` [Compound 94, 2-[({[5-ethyl-4-(4-methylpentyl)-4H-1,2,4-triazol-3-yl]methyl}amino)methyl]-6-(hydroxymethyl)pyridine-4-carboxylic acid], the IC50 on KDM4C (JMJD2C) (setting [1]) was greater than 10 µM; at KDM4C (JMJD2C) (setting [2]), greater than 10 µM; at KDM2B (FBXL10), 0.047 µM; at PHF8 (KDM7) (setting [3]), 2.03 µM; on KDM5B (PLU-1) (setting [4]) it was greater than 10 µM; on KDM5B (PLU-1) (setting [5]) it was greater than 10 µM.
For `O=Cc1cn(Cc2ccc(F)cc2)c(CNCc2cc(C(=O)O)cc(CO)n2)n1` [Compound 111, 2-{[({1-[(4-fluorophenyl)methyl]-4-formyl-1H-imidazol-2-yl}methyl)amino]methyl}-6-(hydroxymethyl)pyridine-4-carboxylic acid], the IC50 at KDM4C (JMJD2C) (setting [1]) is greater than 10 µM; on KDM4C (JMJD2C) (setting [2]), greater than 10 µM; at KDM2B (FBXL10), 0.823 µM; on PHF8 (KDM7) (setting [3]), 5.1 µM; against KDM5B (PLU-1), 1.07 µM.

The record behind these values is patent US9802941B2, “Compounds and methods for inhibiting histone demethylases” (Gilead Sciences, Inc., priority 2014, dated 2017).
